Source: patent US8148392B2, “2-indolyl imidazo [4,5-d] phenanthroline derivatives and their use in the treatment of cancer” (Lorus Therapeutics Inc., priority 2005, dated 2012)
Entries after “also recorded” stand apart in the source; their conditions may differ. Where two headings read alike, the source gives them in different places.

What was measured:
Cyclin D1 = Cyclin D1 gene expression in HT-29 cells, RT-PCR; format: cell-based, human; details: for Cyclin D1 expression change with zinc supplement: HT-29, 1 μM compound plus ZnCl2; for Cyclin D1 gene expression, change: HT-29, 1 μM, in words
Description: Gene and protein expression of Cyclin D1 after treatment with compound 3 was determined by RT-PCR and Western blotting as shown in FIGS. 43A and 43B, respectively, as follows. HT-29 cells were treated with 1 μM compound 3 for indicated time. Total RNA was extracted and gene expression level was determined by RT-PCR. Cyclin D1 protein expression in HT-29 cell lysate was determined by SDS-PAGE followed by Western blotting.
To identify the cell cycle regulatory pathway involved in compound 3-mediated cell cycle arrest as shown in Example 23 and 41, particularly associated with G1/S phase, expression of the key cell cycle regulator of G1/S phase progression, Cyclin D1, was examined.
(§1) The ability of compounds of Formula I to modulate gene expression of MT1A (FIG. 55A), MTF-1 (FIG. 55B), Cyclin D1 (FIG. 55C) and KLF4 (FIG. 55D) was determined by RT-PCR. HT-29 cells were treated with 1 μM compound 3 or compound 7, 35 μM ZnCl2, compound 3 and ZnCl2 together, or compound 7 and ZnCl2 together for 8 to 16 hr. The respective gene expression was normalized with β-actin gene expression in the same sample. Fold change in gene expression was expressed relative to the respective gene level of DMSO control.
(§2) The effect of compound 3 and compound 64 on gene expression changes in MT1A (FIG. 57A), MTF-1 (FIG. 57B), Cyclin D1 (FIG. 57C) and KLF4 (FIG. 57D) in HT-29 cells was determined by RT-PCR. HT-29 cells were treated with 1 μM compound 3 or compound 64, 35 μM ZnCl2, compound 3 and ZnCl2 together, or compound 64 and ZnCl2 together for 8 to 16 hr. The respective gene expression was normalized with β-actin gene expression in the same sample. Fold change in gene expression was expressed relative to the respective gene level of DMSO control.

CCRF-CEM leukemia cells = experiment: XTT cell proliferation assay, CCRF-CEM; format: cell-based, human; details: read-out: IC50 (cell growth inhibition)
Description: (§3) Cell growth inhibition IC50 (μM) by compounds of Formula I was tested on various cancer cell types by XTT cell proliferation assay. The growth inhibitory effects of the compounds of Formula I as shown below for the melanoma cell line SK-MEL-2 were reproducible by Lorus Therapeutics Inc.

SK-MEL-2 melanoma cells = experiment: XTT cell proliferation assay, SK-MEL-2; format: cell-based, human; details: read-out: IC50 (cell growth inhibition)
Description: as §3

[1] = test system: human colon carcinoma HT-29 cells; experiment: XTT cell proliferation assay, HT-29; format: cell-based
Outline: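 HT-29 cells in McCoy's 5A with 10% FBS, 37° C., 5% CO2, exposed to varying compound concentrations for 6-7 days. Viable cells quantified by XTT reduction to formazan; growth inhibition expressed as IC50 (μM).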

KLF4 [2] = experiment: KLF4 gene expression by RT-PCR, MDA-MB-435; format: cell-based, human; details: MDA-MB-435, relative to vehicle control as 1
From the text: (§4) Gene expression levels of KLF4, induced by compounds of Formula I, were also examined on various cancer cell types by RT-PCR. Fold changes in KLF4 in compound-treated cells were expressed relative to KLF4 expression in vehicle control-treated cells of respective cell type as “1”. […] Additionally, xenografts of MDA-MB-435 implanted into mammary fat pads of female SCID mice have shown immunohistochemical staining consistent with melanocytic origin (Ellison G, Klinowska T, Westwood R F, Docter E, French T, Fox J C. (2002) Mol Pathol. 55(5): 294-299). The breast cancer cell line MDA-MB-435 may be expected to function differently than the other breast cancer cell lines.

KLF4 [3] = experiment: KLF4 gene expression by RT-PCR, HCT-116; format: cell-based, human; details: HCT-116, relative to vehicle control as 1
From the text: as §4

MTF-1 = MTF-1 gene expression in HT-29 cells, RT-PCR; format: cell-based, human; details: for MTF-1 expression change with zinc supplement: HT-29, 1 μM compound plus ZnCl2, 8 hr; for MTF-1 gene expression, change: HT-29, 1 μM, in words
Description: The gene expression of MTF-1 was examined by RT-PCR following treatment of HT-29 cells with 1 μM compound 3 for indicated time.
To assess the cellular response to zinc depletion, the gene expression of zinc-sensitive transcription factor MTF-1 was examined.
as §1, §2

[4] = test system: PC-3 prostate cancer cells; experiment: XTT cell proliferation assay, PC-3; format: cell-based, human; details: read-out: IC50 (cell growth inhibition)
Description: as §3

[5] = test system: MDA-MB-435 breast cancer cells; experiment: XTT cell proliferation assay, MDA-MB-435; format: cell-based, human; details: read-out: IC50 (cell growth inhibition)
Description: as §3

[6] = test system: DU-145 prostate cancer cells; experiment: XTT cell proliferation assay, DU-145; format: cell-based, human; details: read-out: IC50 (cell growth inhibition)
Description: as §3

KLF4 [7] = experiment: KLF4 gene expression by RT-PCR, MOLT-4; format: cell-based, human; details: MOLT-4, relative to vehicle control as 1
From the text: as §4

[8] = Homo sapiens, HT-29, XTT, 6-7 days, Table 3, read-out: IC50
[9] = Homo sapiens, HT-29, XTT, as Example 13, Table 7, read-out: IC50
[10] = Homo sapiens, HT-29 colon, Table 8, read-out: IC50 (cell growth inhibition)

Structure (SMILES) | Cyclin D1 expression change with zinc supplement (Cyclin D1) | Cyclin D1 gene expression, change (Cyclin D1) | IC50 (CCRF-CEM leukemia cells; Homo sapiens) | IC50 (SK-MEL-2 melanoma cells; Homo sapiens) | IC50 [1, 8] | IC50 [1, 9] | IC50 [1, 10] | KLF4 (gene fold increase) (KLF4 [2]) | KLF4 (gene fold increase) (KLF4 [3]) | MTF-1 expression change with zinc supplement (MTF-1) | MTF-1 gene expression, change (MTF-1) | IC50 ([4]; Homo sapiens) | IC50 ([5]; Homo sapiens) | IC50 ([6]; Homo sapiens) | KLF4 (gene fold increase) (KLF4 [7]) | also measured
Cc1[nH]c2ccccc2c1-c1nc2c3cccnc3c3ncccc3c2[nH]1 [Compound 3] | reversed in the presence of 25 μM ZnCl2; also recorded: reversed by addition of zinc supplement | Time-dependent decreases; also recorded: decrease in both gene (FIG. 43A) and protein (FIG. 43B) levels of Cyclin D1; also recorded: significantly decreased; also recorded: decreased expressions of MT1A, MTF-1 and Cyclin D1 | 420 nM | 250 nM | 600 nM | 0.6 µg/mL | 710 nM | 9.09 fold | 5.88 fold | recovered by addition of zinc supplement; also recorded: reversed by addition of zinc supplement | Time-dependent decreases; also recorded: decrease in MTF-1 expression was observed after 8 hr treatment; also recorded: significant decrease in gene expression of MTF-1; also recorded: decreased expressions of MT1A, MTF-1 and Cyclin D1 | 300 nM | 350 nM | 350 nM | 44.79 fold | 
Cc1[nH]c2ccc(F)cc2c1-c1nc2c3cccnc3c3ncccc3c2[nH]1 [Compound 7] | reversed by addition of zinc supplement | decreased expressions of MT1A, MTF-1 and Cyclin D1 | 400 nM | 200 nM | 700 nM | 0.7 µg/mL | 800 nM | 11.71 fold | 6.15 fold | reversed by addition of zinc supplement | decreased expressions of MT1A, MTF-1 and Cyclin D1 | 210 nM | 200 nM | 220 nM | 173.6 fold | 
CCc1cccc2c(-c3nc4c5cccnc5c5ncccc5c4[nH]3)c(C(C)(C)C)[nH]c12 [Compound 64] | reversed by addition of zinc supplement | decreased expressions of MT1A, MTF-1 and Cyclin D1 |  |  |  |  |  | 7.59 fold | 3.05 fold | reversed by addition of zinc supplement | decreased expressions of MT1A, MTF-1 and Cyclin D1 |  |  |  | 265.03 fold | IC50 (CCRF-CEM leukemia cells): 250 nM; IC50 (SK-MEL-2 melanoma cells): 200 nM; IC50 ([1]; HT-29, XTT, as Example 13, Table 7): 0.15 µg/mL; IC50 ([1]; HT-29 colon, Table 8, read-out: IC50 (cell growth inhibition)): 150 nM; IC50 [4]: 460 nM; IC50 [5]: 500 nM; IC50 [6]: 300 nM
